Data published in US9714244B2, “Substituted pyrido[4,3-d]pyrimidines as Wee-1 inhibitors” (ALMAC DISCOVERY LIMITED, priority 2013, dated 2017).

Tests used:
Assay type in all cases: biochemical
MAP4K4 (HGK) = MAP4K4 (HGK) (Homo sapiens (Human), UniProt O95819); experiment: SelectScreen Kinase Profiling: MAP4K4; conditions: 300-350 nM
Excerpt: (§1) Table 2 below highlights the selectivity of a representative compound of the invention against a panel of 50 kinases (assessed using the Invitrogen SelectScreen® Kinase Profiling Service).

ERBB2 (HER2) = ERBB2 (HER2) (Homo sapiens (Human), UniProt P04626); experiment: SelectScreen Kinase Profiling: ERBB2; conditions: 300-350 nM
Excerpt: as §1

PLK1 = PLK1 (Homo sapiens (Human), UniProt P53350); experiment: SelectScreen Kinase Profiling: PLK1; conditions: 300-350 nM
Excerpt: as §1

CSNK2A1 (CK2 alpha 1) = CSNK2A1 (CK2 alpha 1) (Homo sapiens (Human), UniProt P68400); experiment: SelectScreen Kinase Profiling: CSNK2A1; conditions: 300-350 nM
Excerpt: as §1

MET (cMet) = MET (cMet) (Homo sapiens (Human), UniProt P08581); experiment: SelectScreen Kinase Profiling: MET; conditions: 300-350 nM
Excerpt: as §1

FLT3 = FLT3 (Homo sapiens (Human), UniProt P36888); experiment: SelectScreen Kinase Profiling: FLT3; conditions: 300-350 nM
Excerpt: as §1

SYK = SYK (Homo sapiens (Human), UniProt P43405); experiment: SelectScreen Kinase Profiling: SYK; conditions: 300-350 nM
Excerpt: as §1

ROCK1 = ROCK1 (Homo sapiens (Human), UniProt Q13464); experiment: SelectScreen Kinase Profiling: ROCK1; conditions: 300-350 nM
Excerpt: as §1

IRAK4 = IRAK4 (Homo sapiens (Human), UniProt Q9NWZ3); experiment: SelectScreen Kinase Profiling: IRAK4; conditions: 300-350 nM
Excerpt: as §1

MAPKAPK2 = MAPKAPK2 (Homo sapiens (Human), UniProt P49137); experiment: SelectScreen Kinase Profiling: MAPKAPK2; conditions: 300-350 nM
Excerpt: as §1

PHKG2 = PHKG2 (Homo sapiens (Human), UniProt P15735); experiment: SelectScreen Kinase Profiling: PHKG2; conditions: 300-350 nM
Excerpt: as §1

FGFR1 = FGFR1 (Homo sapiens (Human), UniProt P11362); experiment: SelectScreen Kinase Profiling: FGFR1; conditions: 300-350 nM
Excerpt: as §1

GSK3B (GSK3 beta) = GSK3B (GSK3 beta) (Homo sapiens (Human), UniProt P49841); experiment: SelectScreen Kinase Profiling: GSK3B; conditions: 300-350 nM
Excerpt: as §1

RPS6KB1 (p70S6K) = RPS6KB1 (p70S6K) (Homo sapiens (Human), UniProt P23443); experiment: SelectScreen Kinase Profiling: RPS6KB1; conditions: 300-350 nM
Excerpt: as §1

MAPK8 (JNK1) = MAPK8 (JNK1) (Homo sapiens (Human), UniProt P45983); experiment: SelectScreen Kinase Profiling: MAPK8; conditions: 300-350 nM
Excerpt: as §1

Src = Src (Homo sapiens (Human), UniProt P12931); experiment: SelectScreen Kinase Profiling: SRC; conditions: 300-350 nM
FRAP1 (mTOR) = FRAP1 (mTOR) (Homo sapiens (Human), UniProt P42345); experiment: SelectScreen Kinase Profiling: FRAP1; conditions: 300-350 nM
Excerpt: as §1

PRKACA (PKA) = PRKACA (PKA) (Homo sapiens (Human), UniProt P17612); experiment: SelectScreen Kinase Profiling: PRKACA; conditions: 300-350 nM
Excerpt: as §1

TEK (Tie2) = TEK (Tie2) (Homo sapiens (Human), UniProt Q02763); experiment: SelectScreen Kinase Profiling: TEK; conditions: 300-350 nM
Excerpt: as §1

MARK2 = MARK2 (Homo sapiens (Human), UniProt Q7KZI7); experiment: SelectScreen Kinase Profiling: MARK2; conditions: 300-350 nM
Excerpt: as §1

JAK3 = JAK3 (Homo sapiens (Human), UniProt P52333); experiment: SelectScreen Kinase Profiling: JAK3; conditions: 300-350 nM
Excerpt: as §1

KDR (VEGFR2) = KDR (VEGFR2) (Homo sapiens (Human), UniProt P35968); experiment: SelectScreen Kinase Profiling: KDR; conditions: 300-350 nM
Excerpt: as §1

ACVR1B (ALK4) = ACVR1B (ALK4) (Homo sapiens (Human), UniProt P36896); experiment: SelectScreen Kinase Profiling: ACVR1B; conditions: 300-350 nM
Excerpt: as §1

PAK4 = PAK4 (Homo sapiens (Human), UniProt O96013); experiment: SelectScreen Kinase Profiling: PAK4; conditions: 300-350 nM
Excerpt: as §1

IGF1R = IGF1R (Homo sapiens (Human), UniProt P08069); experiment: SelectScreen Kinase Profiling: IGF1R; conditions: 300-350 nM
Excerpt: as §1

DYRK3 = DYRK3 (Homo sapiens (Human), UniProt O43781); experiment: SelectScreen Kinase Profiling: DYRK3; conditions: 300-350 nM
Excerpt: as §1

RPS6KA3 (RSK2) = RPS6KA3 (RSK2) (Homo sapiens (Human), UniProt P51812); experiment: SelectScreen Kinase Profiling: RPS6KA3; conditions: 300-350 nM
INSR = INSR (Homo sapiens (Human), UniProt P06213); experiment: SelectScreen Kinase Profiling: INSR; conditions: 300-350 nM
Excerpt: as §1

AKT1 (PKB alpha) = AKT1 (PKB alpha) (Homo sapiens (Human), UniProt P31749); experiment: SelectScreen Kinase Profiling: AKT1; conditions: 300-350 nM
Excerpt: as §1

Wee-1 kinase = Wee-1 kinase (Homo sapiens (Human), UniProt P30291); experiment: Measurement of Wee-1 kinase activity (ADP-Glo); conditions: read-out: Wee-1 IC50 activity

Chain of Src (P12931 whole entry): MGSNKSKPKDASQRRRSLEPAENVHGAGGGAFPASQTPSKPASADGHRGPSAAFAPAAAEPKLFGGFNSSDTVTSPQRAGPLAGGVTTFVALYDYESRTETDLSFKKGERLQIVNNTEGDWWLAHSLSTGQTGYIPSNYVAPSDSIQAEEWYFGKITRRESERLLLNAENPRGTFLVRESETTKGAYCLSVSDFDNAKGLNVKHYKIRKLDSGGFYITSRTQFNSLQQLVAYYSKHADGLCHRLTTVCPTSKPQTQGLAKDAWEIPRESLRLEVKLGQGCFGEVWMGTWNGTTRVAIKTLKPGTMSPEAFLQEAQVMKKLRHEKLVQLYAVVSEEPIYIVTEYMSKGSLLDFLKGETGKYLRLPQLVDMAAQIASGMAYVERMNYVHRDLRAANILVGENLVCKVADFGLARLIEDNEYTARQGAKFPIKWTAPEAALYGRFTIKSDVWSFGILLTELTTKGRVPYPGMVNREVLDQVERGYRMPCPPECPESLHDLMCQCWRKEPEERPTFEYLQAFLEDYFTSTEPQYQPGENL
Chain of FLT3 (P36888 27-993): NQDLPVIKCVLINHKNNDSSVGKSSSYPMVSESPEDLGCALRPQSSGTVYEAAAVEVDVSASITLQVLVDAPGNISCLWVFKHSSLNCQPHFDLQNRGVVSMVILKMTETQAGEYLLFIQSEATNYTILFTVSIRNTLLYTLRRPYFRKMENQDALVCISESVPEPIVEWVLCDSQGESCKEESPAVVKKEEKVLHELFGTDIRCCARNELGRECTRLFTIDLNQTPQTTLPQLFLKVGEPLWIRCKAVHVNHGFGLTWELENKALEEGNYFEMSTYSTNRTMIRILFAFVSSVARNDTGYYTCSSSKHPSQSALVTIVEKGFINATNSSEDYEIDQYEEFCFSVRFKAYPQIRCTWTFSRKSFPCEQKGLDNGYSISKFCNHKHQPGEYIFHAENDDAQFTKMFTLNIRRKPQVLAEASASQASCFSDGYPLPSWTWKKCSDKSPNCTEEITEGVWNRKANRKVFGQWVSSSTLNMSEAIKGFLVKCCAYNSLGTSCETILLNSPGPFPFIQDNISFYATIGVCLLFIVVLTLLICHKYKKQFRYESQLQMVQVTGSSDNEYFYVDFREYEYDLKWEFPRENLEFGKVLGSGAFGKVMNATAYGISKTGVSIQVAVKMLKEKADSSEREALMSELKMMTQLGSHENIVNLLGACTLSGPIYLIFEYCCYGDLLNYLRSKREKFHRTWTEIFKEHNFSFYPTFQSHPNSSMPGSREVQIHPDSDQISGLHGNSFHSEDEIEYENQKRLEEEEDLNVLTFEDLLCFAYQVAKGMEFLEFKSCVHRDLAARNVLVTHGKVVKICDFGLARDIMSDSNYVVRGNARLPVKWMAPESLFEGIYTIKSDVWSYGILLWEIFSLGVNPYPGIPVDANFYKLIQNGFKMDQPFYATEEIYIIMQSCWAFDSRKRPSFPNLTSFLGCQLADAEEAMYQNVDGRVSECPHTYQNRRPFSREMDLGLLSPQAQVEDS
Chain of PHKG2 (P15735 whole entry): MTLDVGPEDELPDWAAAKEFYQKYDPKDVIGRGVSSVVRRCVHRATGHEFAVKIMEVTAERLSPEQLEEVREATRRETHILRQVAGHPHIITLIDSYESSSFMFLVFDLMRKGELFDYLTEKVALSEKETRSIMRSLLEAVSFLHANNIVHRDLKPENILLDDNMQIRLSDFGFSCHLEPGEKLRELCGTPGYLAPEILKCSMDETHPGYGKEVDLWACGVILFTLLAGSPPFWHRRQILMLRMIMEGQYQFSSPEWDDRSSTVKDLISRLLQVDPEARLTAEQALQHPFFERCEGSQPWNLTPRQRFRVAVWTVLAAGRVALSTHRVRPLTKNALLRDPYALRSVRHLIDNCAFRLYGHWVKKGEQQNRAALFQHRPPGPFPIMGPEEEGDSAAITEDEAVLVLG
Chain of TEK (Tie2) (Q02763 23-1124): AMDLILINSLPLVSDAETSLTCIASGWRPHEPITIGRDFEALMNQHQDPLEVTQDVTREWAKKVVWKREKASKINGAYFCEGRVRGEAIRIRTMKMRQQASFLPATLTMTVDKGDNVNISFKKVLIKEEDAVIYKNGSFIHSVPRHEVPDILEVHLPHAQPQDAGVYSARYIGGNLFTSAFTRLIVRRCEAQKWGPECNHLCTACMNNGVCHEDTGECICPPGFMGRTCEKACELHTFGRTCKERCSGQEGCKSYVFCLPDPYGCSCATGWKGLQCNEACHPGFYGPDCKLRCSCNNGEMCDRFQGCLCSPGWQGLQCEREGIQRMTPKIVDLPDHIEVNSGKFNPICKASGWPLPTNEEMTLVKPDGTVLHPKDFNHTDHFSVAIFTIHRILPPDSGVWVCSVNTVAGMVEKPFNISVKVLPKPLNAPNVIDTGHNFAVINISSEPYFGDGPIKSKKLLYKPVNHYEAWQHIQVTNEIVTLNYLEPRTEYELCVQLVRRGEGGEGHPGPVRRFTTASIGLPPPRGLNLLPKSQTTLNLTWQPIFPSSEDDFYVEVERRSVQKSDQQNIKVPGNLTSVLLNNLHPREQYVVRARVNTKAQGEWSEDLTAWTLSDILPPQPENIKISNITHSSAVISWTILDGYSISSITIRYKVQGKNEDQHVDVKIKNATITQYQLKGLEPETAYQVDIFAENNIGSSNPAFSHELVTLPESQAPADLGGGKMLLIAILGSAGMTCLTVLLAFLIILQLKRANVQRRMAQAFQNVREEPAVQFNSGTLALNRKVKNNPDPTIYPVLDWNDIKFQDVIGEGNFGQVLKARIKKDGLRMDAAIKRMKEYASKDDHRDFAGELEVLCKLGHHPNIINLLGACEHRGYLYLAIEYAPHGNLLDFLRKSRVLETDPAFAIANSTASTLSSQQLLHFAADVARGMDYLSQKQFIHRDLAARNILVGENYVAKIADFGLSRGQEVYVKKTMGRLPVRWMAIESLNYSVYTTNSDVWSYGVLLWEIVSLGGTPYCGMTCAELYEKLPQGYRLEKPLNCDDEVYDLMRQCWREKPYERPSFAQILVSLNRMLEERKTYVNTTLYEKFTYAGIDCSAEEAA
Chain of PLK1 (P53350 whole entry): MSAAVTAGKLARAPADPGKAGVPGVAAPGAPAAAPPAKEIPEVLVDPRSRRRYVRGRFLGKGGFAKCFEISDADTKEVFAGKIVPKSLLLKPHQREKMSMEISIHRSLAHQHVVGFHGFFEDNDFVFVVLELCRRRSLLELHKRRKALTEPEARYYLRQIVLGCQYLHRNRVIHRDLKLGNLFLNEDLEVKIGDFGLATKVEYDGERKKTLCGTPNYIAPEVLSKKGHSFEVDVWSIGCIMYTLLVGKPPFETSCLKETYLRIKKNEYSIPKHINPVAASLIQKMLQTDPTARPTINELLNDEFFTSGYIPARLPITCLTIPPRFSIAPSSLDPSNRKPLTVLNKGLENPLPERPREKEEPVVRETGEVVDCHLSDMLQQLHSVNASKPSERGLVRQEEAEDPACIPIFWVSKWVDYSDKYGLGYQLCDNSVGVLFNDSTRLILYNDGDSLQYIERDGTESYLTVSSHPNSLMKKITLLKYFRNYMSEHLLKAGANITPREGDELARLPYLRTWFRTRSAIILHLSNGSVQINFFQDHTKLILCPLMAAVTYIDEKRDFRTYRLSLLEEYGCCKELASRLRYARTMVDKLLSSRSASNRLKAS
Chain of ACVR1B (ALK4) (P36896 24-505): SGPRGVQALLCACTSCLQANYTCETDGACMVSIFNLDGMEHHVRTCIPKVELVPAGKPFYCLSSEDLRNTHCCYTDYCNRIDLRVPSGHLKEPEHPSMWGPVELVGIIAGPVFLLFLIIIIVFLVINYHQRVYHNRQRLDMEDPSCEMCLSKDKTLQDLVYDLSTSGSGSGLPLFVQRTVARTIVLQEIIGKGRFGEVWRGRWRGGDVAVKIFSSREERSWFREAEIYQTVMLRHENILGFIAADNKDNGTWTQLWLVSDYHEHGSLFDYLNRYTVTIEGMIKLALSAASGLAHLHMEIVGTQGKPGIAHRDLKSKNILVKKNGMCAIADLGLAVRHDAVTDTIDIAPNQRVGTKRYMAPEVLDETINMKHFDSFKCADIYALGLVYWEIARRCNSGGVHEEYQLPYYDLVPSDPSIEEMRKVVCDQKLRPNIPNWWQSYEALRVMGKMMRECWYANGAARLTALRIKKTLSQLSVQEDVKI
Chain of RPS6KA3 (RSK2) (P51812 whole entry): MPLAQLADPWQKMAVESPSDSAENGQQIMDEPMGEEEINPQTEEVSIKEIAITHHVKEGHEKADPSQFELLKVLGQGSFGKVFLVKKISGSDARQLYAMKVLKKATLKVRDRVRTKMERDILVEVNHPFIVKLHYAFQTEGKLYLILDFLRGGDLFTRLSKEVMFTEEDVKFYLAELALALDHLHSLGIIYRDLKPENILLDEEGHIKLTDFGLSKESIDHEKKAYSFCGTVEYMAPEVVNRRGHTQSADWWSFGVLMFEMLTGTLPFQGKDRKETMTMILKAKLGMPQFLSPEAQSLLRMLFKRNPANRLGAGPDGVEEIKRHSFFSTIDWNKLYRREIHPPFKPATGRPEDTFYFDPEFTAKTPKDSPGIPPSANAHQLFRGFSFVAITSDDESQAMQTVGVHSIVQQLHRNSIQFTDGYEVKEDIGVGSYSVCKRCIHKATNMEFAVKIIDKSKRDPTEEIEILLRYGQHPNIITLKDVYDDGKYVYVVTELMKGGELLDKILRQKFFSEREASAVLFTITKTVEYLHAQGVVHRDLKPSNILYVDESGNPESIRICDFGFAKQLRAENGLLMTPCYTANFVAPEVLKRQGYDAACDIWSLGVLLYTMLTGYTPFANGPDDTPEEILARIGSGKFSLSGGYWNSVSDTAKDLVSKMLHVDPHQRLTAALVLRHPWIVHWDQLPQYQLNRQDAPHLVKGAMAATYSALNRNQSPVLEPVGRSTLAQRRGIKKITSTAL

O=c1c2cnc(Nc3ccc(N4CCNCC4)cc3)nc2ccn1-c1c(Cl)cccc1Cl [Example 1, 6-(2,6-Dichlorophenyl)-2-((4-(piperazin-1-yl)phenyl)amino)pyrido[4,3-d]pyrimidin-5(6H)-one]
Inhibition MAP4K4 (HGK) (MAP4K4 (HGK)): − (Inhibition <75% @ 300-350 nM) | Inhibition ERBB2 (HER2) (ERBB2 (HER2)): − (Inhibition <75% @ 300-350 nM) | Inhibition PLK1 (PLK1): − (Inhibition <75% @ 300-350 nM) | Inhibition CSNK2A1 (CK2 alpha 1) (CSNK2A1 (CK2 alpha 1)): − (Inhibition <75% @ 300-350 nM) | Inhibition MET (cMet) (MET (cMet)): − (Inhibition <75% @ 300-350 nM) | Inhibition FLT3 (FLT3): − (Inhibition <75% @ 300-350 nM) | Inhibition SYK (SYK): − (Inhibition <75% @ 300-350 nM) | Inhibition ROCK1 (ROCK1): − (Inhibition <75% @ 300-350 nM) | Inhibition IRAK4 (IRAK4): − (Inhibition <75% @ 300-350 nM) | Inhibition MAPKAPK2 (MAPKAPK2): − (Inhibition <75% @ 300-350 nM) | Inhibition PHKG2 (PHKG2): − (Inhibition <75% @ 300-350 nM) | Inhibition FGFR1 (FGFR1): − (Inhibition <75% @ 300-350 nM) | Inhibition GSK3B (GSK3 beta) (GSK3B (GSK3 beta)): − (Inhibition <75% @ 300-350 nM) | Inhibition RPS6KB1 (p70S6K) (RPS6KB1 (p70S6K)): − (Inhibition <75% @ 300-350 nM) | Inhibition MAPK8 (JNK1) (MAPK8 (JNK1)): − (Inhibition <75% @ 300-350 nM) | Inhibition SRC (Src): − (Inhibition <75% @ 300-350 nM) | Inhibition FRAP1 (mTOR) (FRAP1 (mTOR)): − (Inhibition <75% @ 300-350 nM) | Inhibition PRKACA (PKA) (PRKACA (PKA)): − (Inhibition <75% @ 300-350 nM) | Inhibition TEK (Tie2) (TEK (Tie2)): − (Inhibition <75% @ 300-350 nM) | Inhibition MARK2 (MARK2): − (Inhibition <75% @ 300-350 nM) | Inhibition JAK3 (JAK3): − (Inhibition <75% @ 300-350 nM) | Inhibition KDR (VEGFR2) (KDR (VEGFR2)): − (Inhibition <75% @ 300-350 nM) | Inhibition ACVR1B (ALK4) (ACVR1B (ALK4)): − (Inhibition <75% @ 300-350 nM) | Inhibition PAK4 (PAK4): − (Inhibition <75% @ 300-350 nM) | Inhibition IGF1R (IGF1R): − (Inhibition <75% @ 300-350 nM) | Inhibition DYRK3 (DYRK3): − (Inhibition <75% @ 300-350 nM) | Inhibition RPS6KA3 (RSK2) (RPS6KA3 (RSK2)): − (Inhibition <75% @ 300-350 nM) | Inhibition INSR (INSR): − (Inhibition <75% @ 300-350 nM) | Inhibition AKT1 (PKB alpha) (AKT1 (PKB alpha)): − (Inhibition <75% @ 300-350 nM) | IC50 (Wee-1 kinase): 10 to 200 nM
